The record followed here is PubChem BioAssay AID1745844 (Carcinogenic Potency Database (CPDB), 2022).

Calls of active or inactive are those of the source. How the calls were made is not given here.

The data set deals with rodent lifetime carcinogenesis bioassay, tumor incidence TD50. The data set is described as follows: carcinogenic potency in animals, long-term in vivo studies, CPDB compilation (AID 1745844).

Take `CCCCCCCCCCCN(C)N=O`: the TD50 was 15.4 mg/kg/day (rat, strain Fischer 344, males, by gavage, site: esophagus, lesion: squamous-cell carcinoma, dosed 30 weeks, study length 65 weeks); 3.18 mg/kg/day (rat, strain Fischer 344, males, by gavage, site: liver, lesion: cholangiocarcinoma, dosed 30 weeks, study length 65 weeks); 2.38 mg/kg/day (rat, strain Fischer 344, males, by gavage, site: liver, lesion: hepatocellular carcinoma, dosed 30 weeks, study length 65 weeks); 2.41 mg/kg/day (rat, strain Fischer 344, males, by gavage, site: lung, lesion: alveolar adenoma, dosed 30 weeks, study length 65 weeks); 4.99 mg/kg/day (rat, strain Fischer 344, males, by gavage, site: lung, lesion: alveolar-cell adenoma, dosed 30 weeks, study length 65 weeks); 2.37 mg/kg/day (rat, strain Fischer 344, males, by gavage, site: lung, lesion: squamous-cell carcinoma, dosed 30 weeks, study length 65 weeks). Where the note is “rat, strain Fischer 344, males, by gavage, site: stomach, nonglandular, lesion: papilloma, dosed 30 weeks, study length 65 weeks”, this compound gave a TD50 of 15.4 mg/kg/day.

For `Oc1ccc(OCc2ccccc2)cc1`, the carcinogen call (mouse, strain B6AKF1, females, oral dosing, site: any site (literature study), lesion: several types, types named in the paper, dosed 76 weeks, study length 76 weeks) was “negative (inactive)”; the carcinogen call (mouse, strain B6AKF1, females, oral dosing, site: liver, lesion: hepatoma, dosed 76 weeks, study length 76 weeks) was “negative (inactive)”; the carcinogen call (mouse, strain B6AKF1, females, oral dosing, site: lung, lesion: adenoma, dosed 76 weeks, study length 76 weeks) is “negative (inactive)”; the carcinogen call (mouse, strain B6AKF1, males, oral dosing, site: any site (literature study), lesion: several types, types named in the paper, dosed 76 weeks, study length 76 weeks) is “negative (inactive)”; the carcinogen call (mouse, strain B6AKF1, males, oral dosing, site: liver, lesion: hepatoma, dosed 76 weeks, study length 76 weeks) was “negative (inactive)”; the carcinogen call (mouse, strain B6AKF1, males, oral dosing, site: lung, lesion: adenoma, dosed 76 weeks, study length 76 weeks) was “negative (inactive)”. Besides, the carcinogen call reads like this: (mouse, strain B6C3F1, females, oral dosing, site: liver, lesion: hepatoma, dosed 76 weeks, study length 76 weeks) “negative (inactive)”; (mouse, strain B6C3F1, females, oral dosing, site: lung, lesion: several types, types named in the paper, dosed 76 weeks, study length 76 weeks) “negative (inactive)”. Moreover, the TD50 runs as follows: (mouse, strain B6C3F1, females, oral dosing, site: any site (literature study), lesion: several types, types named in the paper, dosed 76 weeks, study length 76 weeks) 1230 mg/kg/day (inactive); (mouse, strain B6C3F1, males, oral dosing, site: any site (literature study), lesion: several types, types named in the paper, dosed 76 weeks, study length 76 weeks) 141 mg/kg/day (inactive); (mouse, strain B6C3F1, males, oral dosing, site: liver, lesion: hepatoma, dosed 76 weeks, study length 76 weeks) 382 mg/kg/day (inactive); (mouse, strain B6C3F1, males, oral dosing, site: lung, lesion: adenoma, dosed 76 weeks, study length 76 weeks) 382 mg/kg/day (inactive).

In the case of `CC(CO)OC(C)CO` (stereo not drawn) (tested in a mixture with another compound), the carcinogen call (mouse, strain B6C3F1, females, in drinking water, site: any site (literature study), lesion: several types, types named in the paper, dosed 104 weeks, study length 104 weeks) is “negative (inactive)” and the carcinogen call (rat, strain Fischer 344, females, in drinking water, site: any site (literature study), lesion: several types, types named in the paper, dosed 104 weeks, study length 104 weeks) is “negative (inactive)”. Further, the TD50 is 31800 mg/kg/day (mouse, strain B6C3F1, females, in drinking water, site: lung, lesion: alveolar/bronchiolar adenoma + alveolar/bronchiolar carcinoma, dosed 104 weeks, study length 104 weeks); 24500 mg/kg/day (inactive) (mouse, strain B6C3F1, males, in drinking water, site: any site (literature study), lesion: several types, types named in the paper, dosed 104 weeks, study length 104 weeks); 18100 mg/kg/day (mouse, strain B6C3F1, males, in drinking water, site: lung, lesion: alveolar/bronchiolar adenoma + alveolar/bronchiolar carcinoma, dosed 104 weeks, study length 104 weeks); 274 mg/kg/day (inactive) (rat, strain Fischer 344, males, in drinking water, site: any site (literature study), lesion: several types, types named in the paper, dosed 104 weeks, study length 102 weeks); 68200 mg/kg/day (rat, strain Fischer 344, males, in drinking water, site: liver, lesion: hepatocellular adenoma + hepatoblastoma + hepatocellular carcinoma, dosed 104 weeks, study length 102 weeks).

As to `COC(=O)C1=C(C)NC(C)=C(C(=O)OCCc2ccc(N3CCN(C(c4ccccc4)c4ccccc4)CC3)cc2)C1c1cccc([N+](=O)[O-])c1` (stereo not drawn), the TD50 is 293 mg/kg/day (inactive) (mouse, strain B6C3F1, females, in feed, site: any site (literature study), lesion: several types, types named in the paper, dosed 78 weeks, study length 78 weeks); 714 mg/kg/day (inactive) (mouse, strain B6C3F1, females, in feed, site: liver, lesion: hepatocellular adenoma, dosed 78 weeks, study length 78 weeks); 243 mg/kg/day (inactive) (mouse, strain B6C3F1, females, in feed, site: lung, lesion: alveolar/bronchiolar adenoma, dosed 78 weeks, study length 78 weeks); 898 mg/kg/day (inactive) (mouse, strain B6C3F1, males, in feed, site: liver, lesion: hepatocellular carcinoma, dosed 78 weeks, study length 78 weeks); 46.1 mg/kg/day (inactive) (rat, strain F344/DuCrj, females, in feed, site: any site (literature study), lesion: several types, types named in the paper, dosed 104 weeks, study length 104 weeks); 509 mg/kg/day (inactive) (rat, strain F344/DuCrj, females, in feed, site: liver, lesion: hepatocellular adenoma, dosed 104 weeks, study length 104 weeks). In addition, the carcinogen call (mouse, strain B6C3F1, females, in feed, site: lung, lesion: adenocarcinoma, dosed 78 weeks, study length 78 weeks) is “negative (inactive)”; the carcinogen call (mouse, strain B6C3F1, males, in feed, site: any site (literature study), lesion: several types, types named in the paper, dosed 78 weeks, study length 78 weeks) is “negative (inactive)”; the carcinogen call (mouse, strain B6C3F1, males, in feed, site: liver, lesion: hepatocellular adenoma, dosed 78 weeks, study length 78 weeks) is “negative (inactive)”; the carcinogen call (mouse, strain B6C3F1, males, in feed, site: lung, lesion: adenocarcinoma, dosed 78 weeks, study length 78 weeks) is “negative (inactive)”; the carcinogen call (mouse, strain B6C3F1, males, in feed, site: lung, lesion: alveolar/bronchiolar adenoma, dosed 78 weeks, study length 78 weeks) is “negative (inactive)”; the carcinogen call (rat, strain F344/DuCrj, males, in feed, site: any site (literature study), lesion: several types, types named in the paper, dosed 104 weeks, study length 104 weeks) was “negative (inactive)”. Further, the carcinogen call (rat, strain F344/DuCrj, males, in feed, site: liver, lesion: hepatocellular adenoma, dosed 104 weeks, study length 104 weeks) was “negative (inactive)”.

As to `COC(=O)[C@H]1[C@H]2C[C@@H]3c4[nH]c5ccccc5c4CCN3C[C@H]2C[C@@H](OC(=O)c2cc(OC)c(OC)c(OC)c2)[C@@H]1OC`, the TD50 (rat, strain Wistar, both sexes, in feed, site: several sites, sites named in the paper, lesion: several types, types named in the paper, dosed 78 weeks, study length 78 weeks) was 1.28 mg/kg/day (inactive).

With `C[C@@H]1C[C@]2(O[C@@H]2C)C(=O)O[C@@H]2CCN(C)C/C=C(/COC(=O)[C@]1(C)O)C2=O`, the TD50 runs as follows: (rat, strain ACI, females, in drinking water, site: liver, lesion: hemangioendothelial sarcoma, dosed 68 weeks, study length 68 weeks) 1.52 mg/kg/day; (rat, strain ACI, females, in drinking water, site: liver, lesion: liver-cell adenoma, dosed 68 weeks, study length 68 weeks) 4.13 mg/kg/day; (rat, strain ACI, females, in drinking water, site: liver, lesion: several types, types named in the paper, dosed 68 weeks, study length 68 weeks) 1.52 mg/kg/day; (rat, strain ACI, males, in drinking water, site: liver, lesion: hemangioendothelial sarcoma, dosed 58 weeks, study length 58 weeks) 4.78 mg/kg/day; (rat, strain ACI, males, in drinking water, site: liver, lesion: liver-cell adenoma, dosed 58 weeks, study length 58 weeks) 1.16 mg/kg/day; (rat, strain ACI, males, in drinking water, site: liver, lesion: several types, types named in the paper, dosed 58 weeks, study length 58 weeks) 0.662 mg/kg/day.

Regarding `CCCCCCCCCCN(C)N=O`, the carcinogen call (rat, strain Fischer 344, males, by gavage, site: any site (literature study), lesion: several types, types named in the paper, dosed 30 weeks, study length 102 weeks) was “positive”. Besides, the TD50 was 46.6 mg/kg/day (rat, strain Fischer 344, males, by gavage, site: forestomach, lesion: carcinoma, dosed 30 weeks, study length 102 weeks); 46.6 mg/kg/day (rat, strain Fischer 344, males, by gavage, site: forestomach, lesion: papilloma, dosed 30 weeks, study length 102 weeks); 22.7 mg/kg/day (rat, strain Fischer 344, males, by gavage, site: liver, lesion: hepatocellular carcinoma, dosed 30 weeks, study length 102 weeks); 8.32 mg/kg/day (rat, strain Fischer 344, males, by gavage, site: lung, lesion: adenocarcinoma, dosed 30 weeks, study length 102 weeks); 14.7 mg/kg/day (rat, strain Fischer 344, males, by gavage, site: lung, lesion: adenoma, dosed 30 weeks, study length 102 weeks); 46.6 mg/kg/day (rat, strain Fischer 344, males, by gavage, site: nasal cavity, lesion: several types, types named in the paper, dosed 30 weeks, study length 102 weeks). Where the note is “rat, strain Fischer 344, males, by gavage, site: urinary bladder, lesion: transitional-cell carcinoma, dosed 30 weeks, study length 102 weeks”, the TD50 was 1.26 mg/kg/day.

On to `C#CC(OC(N)=O)(c1ccccc1)c1ccc(Cl)cc1` (stereo not drawn), for which the TD50 was 3.88 mg/kg/day (rat, strain Harlan, males, in feed, site: any site (literature study), lesion: several types, types named in the paper, dosed 72 weeks, study length 94 weeks); 462 mg/kg/day (rat, strain Harlan, males, in feed, site: brain, lesion: several types, types named in the paper, dosed 72 weeks, study length 94 weeks); 24.9 mg/kg/day (rat, strain Harlan, males, in feed, site: duodenum, lesion: adenocarcinoma, dosed 72 weeks, study length 94 weeks); 8.78 mg/kg/day (rat, strain Harlan, males, in feed, site: jejunum, lesion: adenocarcinoma, dosed 72 weeks, study length 94 weeks); 58.5 mg/kg/day (rat, strain Harlan, males, in feed, site: liver, lesion: several types, types named in the paper, dosed 72 weeks, study length 94 weeks).

`O=[N+]([O-])c1ccc(NCCO)c(OCCO)c1`: the carcinogen call by setting is: (mouse, strain B6C3F1, females, in feed, site: any site (literature study), lesion: several types, types named in the paper, dosed 103 weeks, study length 104 weeks) “negative (inactive)”; (mouse, strain B6C3F1, males, in feed, site: any site (literature study), lesion: several types, types named in the paper, dosed 103 weeks, study length 104 weeks) “negative (inactive)”; (rat, strain Fischer 344, females, in feed, site: any site (literature study), lesion: several types, types named in the paper, dosed 103 weeks, study length 104 weeks) “negative (inactive)”. Where the note is “rat, strain Fischer 344, males, in feed, site: pituitary gland, lesion: pars distalis adenoma, dosed 103 weeks, study length 104 weeks”, the TD50 was 465 mg/kg/day.

By TD50 is commonly meant the dose at which the toxic effect under study appears in half of the subjects.
